The text below walks through data of patent US20260174878A1, “IRAK4 DEGRADATION AGENT AND USE THEREOF” (LEADINGTAC PHARMACEUTICAL (SHAOXING) CO., LTD., priority 2022, published 2026).

The DC50 is the midpoint of the concentration-degradation curve. Low readings indicate a more potent degrader, high ones a less potent degrader. For orientation: Dmax means the greatest extent of degradation seen. Read a low Dmax as a partial loss of target.

This test addresses T1, IRAK4 protein in normal human PBMCs (Homo sapiens, UniProt Q9NWZ3).
T1 construct: host or cells: normal human PBMCs
T1 sequence (Q9NWZ3 1-460): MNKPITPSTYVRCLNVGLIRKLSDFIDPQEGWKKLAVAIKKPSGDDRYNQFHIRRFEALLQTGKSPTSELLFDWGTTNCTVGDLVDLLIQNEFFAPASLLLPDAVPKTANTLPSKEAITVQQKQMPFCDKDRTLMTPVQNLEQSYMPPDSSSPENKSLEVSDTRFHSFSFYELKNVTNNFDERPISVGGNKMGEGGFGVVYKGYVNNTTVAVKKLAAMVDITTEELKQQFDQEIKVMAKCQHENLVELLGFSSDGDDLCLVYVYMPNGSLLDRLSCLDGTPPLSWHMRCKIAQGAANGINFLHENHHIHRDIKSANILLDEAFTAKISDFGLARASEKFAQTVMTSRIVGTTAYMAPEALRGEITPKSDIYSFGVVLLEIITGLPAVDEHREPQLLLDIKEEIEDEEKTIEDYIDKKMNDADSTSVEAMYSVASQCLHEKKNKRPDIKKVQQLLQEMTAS
As to the kind of experiment: Degradation of IRAK4 protein in normal human PBMCs (AlphaLISA). The following applies: 24 h incubation. In kind it is cell-based. Here is the method:
The cryopreserved normal human PBMCs (Milestone, PB010C) were thawed and resuspended in RPMI 1640 medium (Gibco, A1049101) supplemented with 10% fetal bovine serum (Gibco, 10099141), 100 U/mL penicillin, and 100 µg/mL streptomycin (Gibco, 15140122). After 0.95 mL of cells were plated in each well of a 24-well cell culture plate, 50 µL of diluted compound solution was added to corresponding wells with cells, such that the final concentration of the compound fell within the range of 0.01-3000 nM. The final concentration of DMSO was 0.25%. After the compound-treated cell plate was incubated in an incubator at 37° C. with 5% CO2 for 24 h, the cells were collected into 1.5 mL centrifuge tubes and centrifuged at 1000 rpm at 4° C. for 5 min. The cell pellets were washed twice with 1×DPBS. The resuspended cells were lysed with 100 μL of lysis buffer, left to stand on ice for 30 min, and then centrifuged at 14000 g at 4° C. for 10 min. The samples of the cell lysate supernatant after centrifugation were cryopreserved at −80° C. before testing. The cell lysis buffer was a Western and IP cell lysis buffer (Beyotime, P0013) supplemented with 1 mM phenylmethylsulfonyl fluoride and a protease inhibitor cocktail (Beyotime, P1008).
The total protein concentrations of the cell lysate samples were determined using a BCA protein quantification kit (Tiangen, PA115-02).
The prepared PBMC lysate samples were assayed for IRAK4 concentrations using a human IRAK4 AlphaLISA assay kit (PerkinElmer, AL3117C) to determine the degradation effects of the compounds on IRAK4. The method is as follows:
5 μL of each of IRAK4 standard solutions with different concentrations and test samples of cell lysate supernatant were added to a white 384-well plate (PerkinElmer, 6007299), and then 10 μL of 5× anti-IRAK4 […] beads was added to each well (final concentration of 10 μg/mL). The plate was incubated at room temperature for 30 min. Then 10 μL of 5× biotin-labeled anti-IRAK4 antibody was added to each well (final concentration of 1 nM), and the plate was incubated at room temperature for another 60 min. Finally, 25 μL of 2× streptavidin-labeled donor beads was added to each well (final concentration of 40 μg/mL), and the plate was incubated at room temperature for another 30 min. After the incubation was completed, AlphaLISA signal values were measured on a microplate reader EnVision (PerkinElmer, 2105) in the AlphaScreen standard mode. A standard curve was plotted from the AlphaLISA signal values of the IRAK4 standard solutions with different concentrations, and the IRAK4 concentration of each cell lysate supernatant was determined according to the corresponding concentrations on the standard curve for the AlphaLISA signal values of the test samples and by performing corresponding correction on the total protein concentration of each sample obtained by BCA quantification. The degradation rates for the compounds at each concentration were calculated by comparing the IRAK4 concentration with that of the control group. Then non-linear curve fittings for logarithmic concentration-inhibition rate were performed using GraphPad Prism 8, and the DC50 and Dmax values of the compound were obtained.
`O=C1CCN(c2cc(C(=O)N3CCC4(CCC(CN5CCC(n6cc(NC(=O)c7cnn8ccc(N9C[C@H]%10C[C@@H]9CO%10)nc78)c(C(F)F)n6)CC5)CC4)CC3)ccc2Cl)C(=O)N1` [Example 1, 5-((1R,4R)-2-oxa-5-azabicyclo[2.2.1]heptan-5-yl)-N-(1-(1-((3-(4-chloro-3-(2,4-dioxotetrahydropyrimidin-1(2H)-yl)benzoyl)-3-azaspiro[5.5]undecan-9-yl)methyl)piperidin-4-yl)-3-(difluoromethyl)-1H-pyrazol-4-yl)pyrazolo[1,5-a]pyrimidine-3-carboxamide] had a DC50 of 1280 pM and a Dmax of 99%.
`O=C1CCN(c2cc(C(=O)N3CCC4(CCN(C[C@H]5CC[C@H](n6cc(NC(=O)c7cnn8ccc(N9C[C@H]%10C[C@@H]9CO%10)nc78)c(C(F)F)n6)CC5)CC4)CC3)ccc2Cl)C(=O)N1` [Example 2, 5-((1R,4R)-2-oxa-5-azabicyclo[2.2.1]heptan-5-yl)-N-(1-((1r,4R)-4-((9-(4-chloro-3-(2,4-dioxotetrahydropyrimidin-1(2H)-yl)benzoyl)-3,9-diazaspiro[5.5]undecan-3-yl)methyl)cyclohexyl)-3-(difluoromethyl)-1H-pyrazol-4-yl)pyrazolo[1,5-a]pyrimidine-3-carboxamide] returned a half-maximal degradation concentration (DC50) of 1560 pM and a Dmax of 99.1%.
As to `COc1ccc(C(=O)N2CCC3(CCC(CN4CCC(n5cc(NC(=O)c6cnn7ccc(N8C[C@H]9C[C@@H]8CO9)nc67)c(C(F)F)n5)CC4)CC3)CC2)cc1N1CCC(=O)NC1=O` [Example 3, 5-((1R,4R)-2-oxa-5-azabicyclo[2.2.1]heptan-5-yl)-N-(3-(difluoromethyl)-1-(1-((3-(3-(2,4-dioxotetrahydropyrimidin-1(2H)-yl)-4-methoxybenzoyl)-3-azaspiro[5.5]undecan-9-yl)methyl)piperidin-4-yl)-1H-pyrazol-4-yl)pyrazolo[1,5-a]pyrimidine-3-carboxamide], half-maximal degradation (DC50) was put at 280 pM and the Dmax is 97.7%.
In turn, `O=C1CCN(c2cc(C(=O)N3CCC4(CCC(CN5CCC(n6cc(NC(=O)c7cnn8ccc(N9CCOCC9)nc78)c(C(F)F)n6)CC5)CC4)CC3)ccc2Cl)C(=O)N1` [Example 4, N-(1-(1-((3-(4-chloro-3-(2,4-dioxotetrahydropyrimidin-1(2H)-yl)benzoyl)-3-azaspiro[5.5]undecan-9-yl)methyl)piperidin-4-yl)-3-(difluoromethyl)-1H-pyrazol-4-yl)-5-morpholinopyrazolo[1,5-a]pyrimidine-3-carboxamide] showed a DC50 of 390 pM and a Dmax of 97.2%.
In turn, `O=C1CCN(c2cc(C(=O)N3CCC4(CCC(CN5CCC(n6cc(NC(=O)c7cnn8ccc(N9CCNCC9)nc78)c(C(F)F)n6)CC5)CC4)CC3)ccc2Cl)C(=O)N1` [Example 5, N-(1-(1-((3-(4-chloro-3-(2,4-dioxotetrahydropyrimidin-1(2H)-yl)benzoyl)-3-azaspiro[5.5]undecan-9-yl)methyl)piperidin-4-yl)-3-(difluoromethyl)-1H-pyrazol-4-yl)-5-(piperazin-1-yl)pyrazolo[1,5-a]pyrimidine-3-carboxamide] displayed a DC50 of 600 pM and a Dmax of 98.8%.
Compound `COc1ccc(C(=O)N2CCC3(CCC(CN4CCC(n5cc(NC(=O)c6cnn7ccc(N8CC9CCC(C8)O9)nc67)c(C(F)F)n5)CC4)CC3)CC2)cc1N1CCC(=O)NC1=O` [Example 6, 5-(8-oxa-3-azabicyclo[3.2.1]octan-3-yl)-N-(3-(difluoromethyl)-1-(1-((3-(3-(2,4-dioxotetrahydropyrimidin-1(2H)-yl)-4-methoxybenzoyl)-3-azaspiro[5.5]undecan-9-yl)methyl)piperidin-4-yl)-1H-pyrazol-4-yl)pyrazolo[1,5-a]pyrimidine-3-carboxamide] had a DC50 of 560 pM and a Dmax of 97.9%.
In turn, `O=C1CCN(c2cc(C(=O)N3CCC(CCCCN4CCC(n5cc(NC(=O)c6cnn7ccc(N8C[C@H]9C[C@@H]8CO9)nc67)c(C(F)F)n5)CC4)CC3)ccc2Cl)C(=O)N1` [Example 7, 5-((1R,4R)-2-oxa-5-azabicyclo[2.2.1]heptan-5-yl)-N-(1-(1-(4-(1-(4-chloro-3-(2,4-dioxotetrahydropyrimidin-1(2H)-yl)benzoyl)piperidin-4-yl)butyl)piperidin-4-yl)-3-(difluoromethyl)-1H-pyrazol-4-yl)pyrazolo[1,5-a]pyrimidine-3-carboxamide] showed a DC50 of 390 pM and a Dmax of 98.1%.
`O=C1CCN(c2cc(C(=O)N3CCC4(CCC(CN5CCC(n6cc(NC(=O)c7cnn8ccc(N9CCOCC9)nc78)c(C(F)F)n6)CC5)CC4)CC3)ccc2F)C(=O)N1` [Example 12, N-(3-(difluoromethyl)-1-(1-((3-(3-(2,4-dioxotetrahydropyrimidin-1(2H)-yl)-4-fluorobenzoyl)-3-azaspiro[5.5]undecan-9-yl)methyl)piperidin-4-yl)-1H-pyrazol-4-yl)-5-morpholinopyrazolo[1,5-a]pyrimidine-3-carboxamide] yielded a DC50 of 370 pM and a Dmax of 98%.
`Cc1ccc(C(=O)N2CCC3(CCC(CN4CCC(n5cc(NC(=O)c6cnn7ccc(N8CCOCC8)nc67)c(C(F)F)n5)CC4)CC3)CC2)cc1N1CCC(=O)NC1=O` [Example 13, N-(3-(difluoromethyl)-1-(1-((3-(3-(2,4-dioxotetrahydropyrimidin-1(2H)-yl)-4-methylbenzoyl)-3-azaspiro[5.5]undecan-9-yl)methyl)piperidin-4-yl)-1H-pyrazol-4-yl)-5-morpholinopyrazolo[1,5-a]pyrimidine-3-carboxamide] registered a DC50 of 210 pM and a Dmax of 98.2%.
In turn, `COc1ccc(C(=O)N2CCC3(CCC(CCN4CCC(n5cc(NC(=O)c6cnn7ccc(N8CCOCC8)nc67)c(C(F)F)n5)CC4)CC3)CC2)cc1N1CCC(=O)NC1=O` [Example 16, N-(3-(difluoromethyl)-1-(1-(2-(3-(3-(2,4-dioxotetrahydropyrimidin-1(2H)-yl)-4-methoxybenzoyl)-3-azaspiro[5.5]undecan-9-yl)ethyl)piperidin-4-yl)-1H-pyrazol-4-yl)-5-morpholinopyrazolo [1,5-a]pyrimidine-3-carboxamide] displayed a DC50 of 700 pM and a Dmax of 98.4%.
`O=C1CCN(c2cc(C(=O)N3CCC4(CCC(CCN5CCC(n6cc(NC(=O)c7cnn8ccc(N9CCOCC9)nc78)c(C(F)F)n6)CC5)CC4)CC3)ccc2Cl)C(=O)N1` [Example 20, N-(1-(1-(2-(3-(4-chloro-3-(2,4-dioxotetrahydropyrimidin-1(2H)-yl)benzoyl)-3-azaspiro[5.5]undecan-9-yl)ethyl)piperidin-4-yl)-3-(difluoromethyl)-1H-pyrazol-4-yl)-5-morpholinopyrazolo[1,5-a]pyrimidine-3-carboxamide] returned a DC50 of 720 pM and a Dmax of 95.7%.
As for `Cc1ccc(C(=O)N2CCC3(CCC(CN4CCC(n5cc(NC(=O)c6cnn7ccc(N8C[C@H]9C[C@@H]8CO9)nc67)c(C(F)F)n5)CC4)CC3)CC2)cc1N1CCC(=O)NC1=O` [Example 21, 5-((1R,4R)-2-oxa-5-azabicyclo[2.2.1]heptan-5-yl)-N-(3-(difluoromethyl)-1-(1-((3-(3-(2,4-dioxotetrahydropyrimidin-1(2H)-yl)-4-methylbenzoyl)-3-azaspiro[5.5]undecan-9-yl)methyl)piperidin-4-yl)-1H-pyrazol-4-yl)pyrazolo[1,5-a]pyrimidine-3-carboxamide], the DC50 came to 450 pM and the Dmax stood at 96.2%.
